Data as given in patent publication US9095535B2, “GABA release-regulating agent in cerebellum” (KOREA INSTITUTE OF SCIENCE AND TECHNOLOGY, priority 2009, dated 2015).
Structures can show the parent of a compound that is named as a salt.

Experiments:
[1] = system: cell line derived from type-2 astrocytes; details: cited from earlier work
hBest1 = molecular target: T1, hBest1 (Homo sapiens, UniProt O76090); details: cited from earlier work
T1 sequence (O76090 1-585): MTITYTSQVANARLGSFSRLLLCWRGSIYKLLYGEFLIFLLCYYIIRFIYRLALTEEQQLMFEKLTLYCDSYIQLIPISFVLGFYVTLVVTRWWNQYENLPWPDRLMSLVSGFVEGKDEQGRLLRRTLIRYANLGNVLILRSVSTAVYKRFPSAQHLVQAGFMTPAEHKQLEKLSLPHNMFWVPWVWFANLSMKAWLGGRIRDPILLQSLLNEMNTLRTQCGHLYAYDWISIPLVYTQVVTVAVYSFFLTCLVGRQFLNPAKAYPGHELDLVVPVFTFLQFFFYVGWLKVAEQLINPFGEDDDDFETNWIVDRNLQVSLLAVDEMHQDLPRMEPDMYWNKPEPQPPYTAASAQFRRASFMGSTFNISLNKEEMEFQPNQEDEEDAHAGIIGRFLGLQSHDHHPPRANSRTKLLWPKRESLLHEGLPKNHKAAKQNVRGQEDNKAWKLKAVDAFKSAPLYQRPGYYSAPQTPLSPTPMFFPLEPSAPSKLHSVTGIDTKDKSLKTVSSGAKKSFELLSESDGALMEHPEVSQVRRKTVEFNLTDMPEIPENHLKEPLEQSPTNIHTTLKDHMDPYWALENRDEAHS

cerebellar granule cells [2] = test: Whole-cell patch clamp of tonic GABA current in cerebellar granule cells; type: cell-based, mouse; details: for block of GABAzine-sensitive current by anion channel blockers: 100 μM Niflumic acid, DIDS concentration not given; for GABAzine-sensitive current after incubation: 150 μM BAPTA-AM (25 min) or 0.5 μM concanamycin A
Protocol: Brain slices were prepared as described in Rossi et al., 2003. For slice recording, either approximately P28 days old or more than 8 weeks old mice were used. Animals were deeply anesthetized with halothane. After decapitation, the brain was quickly excised from the skull and submerged in ice-cold cutting solution (in mM): 250 Sucrose, 26 NaHCO3, 10 D(+)-Glucose, 4 MgCl2, 3 myo-inositol, 2.5 KCl, 2 Sodium pyruvate, 1.25 NaH2PO4, 0.5 Ascorbic acid 0.1 CaCl2, 1 Kynurenic acid, pH 7.4. All solutions were gas-treated with 95% O2-5% CO2. After trimming both sides of vermis, several parasagittal slices with […] thicknesses containing cerebellar lobes were cut using a microtome (Leica VT 1000) and transferred to extracellular ACSF solution (in mM); 126 NaCl, 24 NaHCO3, 1 NaH2PO4, 2.5 KCl, 2.5 CaCl2, 2 MgCl2, 10 D(+)-Glucose, pH 7.4. Slices were incubated for one hour at least at room temperature.
For recording, slices were transferred to an electrophysiological recording chamber (RC-26G, Warner Instruments) which is continuously superfused with ASCF (artificial cerebrospinal fluid, sigma) solution (flow rate; 2 ml/min) and controlled by flower controller (Synaptosoft) and a vacuum pump (Charles Austen, model Capex 8C). Slice chamber was mounted on the stage of an upright microscope (Olympus, Japan) and viewed with an ×60 water immersion objective with differential interference contrast and infrared optics. Cellular morphologies were visually identified by Imaging Workbench 6.0 (INDEC Systems, Inc), camera controller (Hamamatsu, C4742-95), and light microscope controller (Olympus, TH4-200). Fluorescence images were viewed with mercury lamp (Olympus, U-RFL-T). Whole cell voltage-clamp recording was made from granular cell somata or Bergmann glial cells mostly located in 2-5 cerebellar lobules
Pipette resistance for granule cells was typically 10-12 MΩ and pipette was filled with an internal solution containing (in mM) 135 CsCl, 4 NaCl, 0.5 CaCl2, 10 HEPES, 5 EGTA, 2 Mg-ATP, 0.5 Na2-GTP, 10 QX-314, pH adjusted to 7.2 with CsOH (278-285 mOsmol) was used (Rossi, et al., 2003).
B6 wildtype, GFAP-GFP and hGFAP-CreERT2 trangenic mice (SPF room, Center for Neural Science, KIST, Seoul, Korea) were anaesthetized by intraperitoneal injection of 2% avertin (20 μl/g, sigma) and placed in a stereotaxic frame (David Kopf instrument). pSicoR-b1shRNA-mCherry or scrambled virus (Macrogen) was stereo-injected into cerebellar cortex at a rate of 0.2 μl/min (total 2 μl) using syringe pump (Harvard apparatus) and 25 μl syringe (Hamilton company). The coordination of injection site was 1.7 mm from the lambda and the depth was 1.5-1.7 mm from the skull.
The glia-specific CreERT activation was initiated by intraperitoneal injection of tamoxifen for 5 days prior to lentivirus injection (FIG. 4a,b). […] Tamoxifen or sunflower oil were injected intraperitoncally once a day for 5 days before lentivirus injection.

GABAc receptors = test: Patch clamp of GABAc expressing HEK293 cells challenged with 100 μM GABA; type: cell-based; details: 100 μM GABA in absence or presence of 100 μM NFA and 100 μM NPPB
Protocol: FIGS. 7a and 7b show the results when GABAc expressing HEK293 cells were patch clamped and challenged with 100 μM GABA in the absence and presence of 100 μM NFA and 100 μM NPPB; and
In FIGS. 7a and 7b, GABAc expressing HEK293 cells were patch clamped and challenged with 100 μM GABA in the absence or presence of 100 μM NFA and 100 μM NPPB.

Best1 channel = molecular target: T2, Best1 channel (Mus musculus, UniProt O88870); type: cell-based; details: NPPB and NFA at 100 μM; inward current in GABAc sensor cell
T2 construct: mBest1 full-length fragment from pGEM-T easy plasmid (6.65 kb, Promega) was subcloned into pcDNA 3.1; expressed in transfected cells; host or cells: HEK293T (ATCC)
T2 sequence (O88870 1-551 R255K): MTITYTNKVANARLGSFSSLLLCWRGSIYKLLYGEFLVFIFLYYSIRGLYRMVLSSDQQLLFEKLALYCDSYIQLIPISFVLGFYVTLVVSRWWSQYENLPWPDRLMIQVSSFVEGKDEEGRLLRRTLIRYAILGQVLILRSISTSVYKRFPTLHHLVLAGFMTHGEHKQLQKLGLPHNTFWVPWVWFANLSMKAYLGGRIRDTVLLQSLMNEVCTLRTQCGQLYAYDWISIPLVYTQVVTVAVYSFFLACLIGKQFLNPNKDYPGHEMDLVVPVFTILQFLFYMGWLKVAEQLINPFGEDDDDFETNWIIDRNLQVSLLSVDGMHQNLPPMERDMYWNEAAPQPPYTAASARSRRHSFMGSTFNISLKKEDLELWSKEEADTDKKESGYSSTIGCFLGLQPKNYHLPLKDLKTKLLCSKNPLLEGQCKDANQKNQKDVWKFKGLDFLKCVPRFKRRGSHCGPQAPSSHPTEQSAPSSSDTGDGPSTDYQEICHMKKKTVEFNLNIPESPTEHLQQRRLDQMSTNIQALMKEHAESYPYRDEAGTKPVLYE
Description: For Best1 channel to mediate release of GABA, it has to permeate GABA upon channel opening. To test for GABA permeability of Best1 channel, a two-cell sniffer patch technique was developed to directly measure GABA release via Best1 channel in sensor HEK293T cells that express GABAc, and via other channels that are expressed in source HEK293T cells (FIG. 1b).
pIRES-Best1-dsRED plasmid (obtained by cloning Best1 using pIRES-dsRED (Invitrogen)) and GABAc with GFP (obtained by cloning GABAc using pcDNA3.1 (Invitrogen)) were transfected into HEK 293T cells (ATCC) using Effectene transfection reagent (Qiagen). […]
GABA release was induced by a break-though of membrane patch that goes into a whole-cell configuration in the source cell and such the released GABA was monitored and detected by a neighboring sensor cell. Full activation of GABA current was obtained by bath application of 100 μM GABA and the percentage of full activation was calculated (FIGS. 1c and 1d).
Permeated GABA is detected in sensor as an inward current (bottom traces). […] The GABA permeability of said mutant was determined by using cells obtained by transfecting said mutant into HEK293t cell (ATCC). […] The GABA permeability of said AN01 was determined by using cells obtained by transfecting said mutant into HEK293t cell (ACTT).

cerebellar granule cells [3] = test: Clomeleon imaging of [Cl−]i in cerebellar granule cells (tonic GABA release); type: cell-based, mouse; details: bath application of 10 μM
Protocol: B6 wildtype, GFAP-GFP and hGFAP-CreERT2 trangenic mice (SPF room, Center for Neural Science, KIST, Seoul, Korea) were anaesthetized by intraperitoneal injection of 2% avertin (20 μl/g, sigma) and placed in a stereotaxic frame (David Kopf instrument). pSicoR-b1shRNA-mCherry or scrambled virus (Macrogen) was stereo-injected into cerebellar cortex at a rate of 0.2 μl/min (total 2 μl) using syringe pump (Harvard apparatus) and 25 μl syringe (Hamilton company). The coordination of injection site was 1.7 mm from the lambda and the depth was 1.5-1.7 mm from the skull. […]
Clomeleon, based on fluorescence resonance energy transfer (FRET), is a genetically-encoded fluorescent indicator for Cl^− in which chloride-sensitive yellow fluroscent protein fused with chloride-insensitive cyan fluorescent protein via a flexible peptide linker (Kuner and Augustine, 2000). […]
For imaging, two ROIs (Regions of Interest) covering the granule cell layer and the molecular layer were drawn. […] Fluorescence excitation was produced by two consecutive 200 to 500 ms long light pulses at 0.5 Hz and fluorescence emission was alternately collected at each wavelength with a back-illuminated, cooled CCD camera with the on-chip multiplication gain control (Cascade 512B, Photometrics). […]

For O=S(=O)(O)c1cc(N=C=S)ccc1C=Cc1ccc(N=C=S)cc1S(=O)(=O)O [DIDS, 4,4′-diisothiocyanatostilbene-2,2′-disulfonic acid], the “sensitivity of P2X7-induced [3H]-GABA release to inhibitors” value [1] is given as “sensitive”, the “block of hBest1 Cl− channel” value (hBest1) is given as “readily blocked” and the “block of GABAzine-sensitive current by anion channel blockers” value (cerebellar granule cells [2]) is given as “blocked the GABAzine-sensitive current significantly”.
For CC(=O)OCOC(=O)CN(CC(=O)OCOC(C)=O)c1ccccc1OCCOc1ccccc1N(CC(=O)OCOC(C)=O)CC(=O)OCOC(C)=O [BAPTA-AM, 1,2-Bis(2-aminophenoxy)ethane-N,N,N′,N′-tetraacetic acid tetrakis(acetoxymethyl ester)], the “GABAzine-sensitive current after incubation” value (cerebellar granule cells [2]) was “significantly reduced”.
In the case of O=C(O)c1cccnc1Nc1cccc(C(F)(F)F)c1 [NFA, Niflumic acid], the “block of hBest1 Cl− channel” value (hBest1) is listed as “readily blocked”, the “block of GABAzine-sensitive current by anion channel blockers” value (cerebellar granule cells [2]) is listed as “blocked the GABAzine-sensitive current significantly” and the “GABA response of GABAc expressing HEK293 cells” value (GABAc receptors) is listed as “do not have significant impact”. For the same compound, the “GABA release via Best1” value (Best1 channel) was “completely abolished”.
Work on CC/C(=C(\c1ccccc1)c1ccc(OCCN(C)C)cc1)c1ccccc1 [Tamoxifen] yielded an NPPB-sensitive current (cerebellar granule cells [2]; hGFAP-CreERT2 mice with Tamoxifen and Best1-shRNA lentivirus, naïve 18.95±2.47 pA) of 19.27±2.2 pA and a GABAzine-sensitive current (cerebellar granule cells [2]; hGFAP-CreERT2 mice, tamoxifen i.p. 5 days, then Best1-shRNA lentivirus (glia-specific rescue)) of 31.31±2.19 pA.
With C/C=C/[C@H]1O[C@@](O)([C@@H](C)[C@H](O)[C@H](C)[C@H]2OC(=O)/C(OC)=C/C(C)=C/[C@@H](C)[C@@H](O)[C@@H](CC)[C@@H](O)[C@H](C)C/C(C)=C/C=C/[C@@H]2OC)C[C@@H](O[C@H]2C[C@@H](O)[C@H](OC(N)=O)[C@@H](C)O2)[C@@H]1C [concanamycin A] the “GABAzine-sensitive current after incubation” value (cerebellar granule cells [2]) was “did not have such affect”.
For COc1ccc(-c2ccc(=N)n(CCCC(=O)O)n2)cc1 [GABAzine, SR95531 hydrobromide], the “[Cl−]i in granular cell bodies and parallel fibers” value (cerebellar granule cells [3]) was “markedly decreased” and the GABAzine-sensitive current (cerebellar granule cells [2]; naïve mice, holding −60 mV) was 35.68±4.05 pA.
In the case of CC(=O)Nc1ccc(C=Cc2ccc(N=C=S)cc2S(=O)(=O)O)c(S(=O)(=O)O)c1 [SITS, 4-acetamido-4′-isothiocyanostilbene-2,2′-disulphonic acid], the “sensitivity of P2X7-induced [3H]-GABA release to inhibitors” value [1] is given as “sensitive”.
